# Results reported in patent US20260200939A1, “MOLECULAR GLUE DEGRADER COMPOUNDS AND USES THEREOF” (Novartis AG, priority 2022, published 2026).
# Target: T1, CDK4 (Homo sapiens, UniProt P11802)
# T1 construct: endogenous in cells; host or cells: C33A
# Assay: CDK4 Degradation Assay, Western blotting
# Assay type: cell-based
# Protocol: C33A cells were purchased from American Type Culture Collection (ATCC) and were cultured in Dulbecco's Modified Eagle Medium (DMEM) containing 10% (v/v) fetal bovine serum (FBS) and maintained at 37° C. with 5% CO2. 22RV1 cells were purchased from the ATCC and were cultured in RPMI-1640 Medium containing 10% (v/v) FBS and maintained at 37° C. with 5% CO2. HEK293T cells were obtained from the UC Berkeley Cell Culture Facility and were cultured in DMEM containing 10% (v/v) FBS and maintained at 37° C. with 5% CO2. K562 cells were obtained from the UC Berkeley Cell Culture Facility and were cultured in Iscove's Modified Dulbecco's Medium (IMDM) containing 10% (v/v) FBS and maintained at 37° C. with 5% CO2. MV-4-11 cells were obtained from the ATCC and were cultured in IMDM containing 10% (v/v) FBS and maintained at 37° C. with 5% CO2. A549 cells were obtained from the ATCC and were cultured in F-12K Medium containing 10% (v/v) FBS and maintained at 37° C. with 5% CO2. Mino cells were obtained from the ATCC and were cultured in RPMI-1640 Medium containing 10% (v/v) FBS and maintained at 37° C. with 5% CO2. LNCaP cells were obtained from the ATCC and were cultured in RPMI-1640 Medium containing 10% (v/v) FBS and maintained at 37° C. with 5% CO2. Unless otherwise specified, all cell culture materials were purchased from Gibco. It is not known whether HEK293T cells are from male or female origin.
# Cells were washed twice with cold PBS, scraped, and pelleted by centrifugation (700 g, 5 min, 4° C.). Pellets were resuspended in PBS, sonicated, clarified by centrifugation (12,000 g, 10 min, 4° C.), and lysate was transferred to new low-adhesion microcentrifuge tubes. Proteome concentrations were determined using BCA assay and lysate was diluted to appropriate working concentrations.
# Proteins were resolved by SDS/PAGE and transferred to nitrocellulose membranes using the Trans-Blot Turbo transfer system (Bio-Rad). Membranes were blocked with 5% BSA in Tris-buffered saline containing Tween 20 (TBS-T) solution for 30 min at RT, washed in TBS-T, and probed with primary antibody diluted in recommended diluent per manufacturer overnight at 4° C. After 3 washes with TBS-T, the membranes were incubated in the dark with IR680- or IR800-conjugated secondary antibodies at 1:10,000 dilution in 5% BSA in TBS-T at RT for 1 h. After 3 additional washes with TBST, blots were visualized using an Odyssey Li-Cor fluorescent scanner. The membranes were stripped using ReBlot Plus Strong Antibody Stripping Solution (EMD Millipore) when additional primary antibody incubations were performed. Antibodies used in this study were CDK4 (Abcam ab108357), Vinculin (Abcam ab129002), GAPDH (Cell Signaling Technology 14C10), RNF126 (Santa Cruz Biotechnology sc-376005), BRD4 (Abcam ab128874), Beta Actin (Cell Signaling Technology 13E5), PDE5 (Abcam ab259945), AR-V7 (Abcam ab273500), c-Abl (Santa Cruz Biotechnology sc-23), SMARCA2 (Abcam ab240648), LRRK2 (Abcam ab133474), BTK (Cell Signaling Technology D3H5), Androgen Receptor (Abcam ab133273).
row,DC50 [µM],Compound
1,> 10,"CN(C)C(=O)c1cc2cnc(Nc3ccc(N4CCN(C(=O)/C=C/C(=O)c5ccccc5)CC4)cn3)nc2n1C1CCCC1 [Compound 258, (E)-7-cyclopentyl-N,N-dimethyl-2-((5-(4-(4-oxo-4-phenylbut-2-enoyl)piperazin-1-yl)pyridin-2-yl)amino)-7H-pyrrolo[2,3-d]pyrimidine-6-carboxamide]"
2,> 10,"CN(C)C(=O)c1cc2cnc(Nc3ccc(N4CCN(C(=O)/C=C/C(=O)c5cccc(Br)c5)CC4)cn3)nc2n1C1CCCC1 [Compound 259, (E)-2-((5-(4-(4-(3-bromophenyl)-4-oxobut-2-enoyl)piperazin-1-yl)pyridin-2-yl)amino)-7-cyclopentyl-N,N-dimethyl-7H-pyrrolo[2,3-d]pyrimidine-6-carboxamide]"
3,> 10,"CN(C)C(=O)c1cc2cnc(Nc3ccc(N4CCN(C(=O)/C=C/C(=O)c5ccc6c(c5)OCC6)CC4)cn3)nc2n1C1CCCC1 [Compound 260, (E)-7-cyclopentyl-2-((5-(4-(4-(2,3-dihydrobenzofuran-6-yl)-4-oxobut-2-enoyl)piperazin-1-yl)pyridin-2-yl)amino)-N,N-dimethyl-7H-pyrrolo[2,3-d]pyrimidine-6-carboxamide]"
4,> 10,"CN(C)C(=O)c1cc2cnc(Nc3ccc(N4CCN(C(=O)/C=C/C(=O)c5ccc6c(c5)CCO6)CC4)cn3)nc2n1C1CCCC1 [Compound 261, (E)-7-cyclopentyl-2-((5-(4-(4-(2,3-dihydrobenzofuran-5-yl)-4-oxobut-2-enoyl)piperazin-1-yl)pyridin-2-yl)amino)-N,N-dimethyl-7H-pyrrolo[2,3-d]pyrimidine-6-carboxamide]"
5,1 to 10,"Cc1ccc(C(=O)/C=C/C(=O)N2CCN(c3ccc(Nc4ncc5cc(C(=O)N(C)C)n(C6CCCC6)c5n4)nc3)CC2)cc1 [Compound 262, (E)-7-cyclopentyl-N,N-dimethyl-2-((5-(4-(4-oxo-4-(p-tolyl)but-2-enoyl)piperazin-1-yl)pyridin-2-yl)amino)-7H-pyrrolo[2,3-d]pyrimidine-6-carboxamide]"
6,> 10,"Cc1ccccc1C(=O)/C=C/C(=O)N1CCN(c2ccc(Nc3ncc4cc(C(=O)N(C)C)n(C5CCCC5)c4n3)nc2)CC1 [Compound 263, (E)-7-cyclopentyl-N,N-dimethyl-2-((5-(4-(4-oxo-4-(o-tolyl)but-2-enoyl)piperazin-1-yl)pyridin-2-yl)amino)-7H-pyrrolo[2,3-d]pyrimidine-6-carboxamide]"
7,> 10,"COc1ccc(C(=O)/C=C/C(=O)N2CCN(c3ccc(Nc4ncc5cc(C(=O)N(C)C)n(C6CCCC6)c5n4)nc3)CC2)c(F)c1 [Compound 264, (E)-7-cyclopentyl-2-((5-(4-(4-(2-fluoro-4-methoxyphenyl)-4-oxobut-2-enoyl)piperazin-1-yl)pyridin-2-yl)amino)-N,N-dimethyl-7H-pyrrolo[2,3-d]pyrimidine-6-carboxamide]"
8,> 10,"COc1cc(F)ccc1C(=O)/C=C/C(=O)N1CCN(c2ccc(Nc3ncc4cc(C(=O)N(C)C)n(C5CCCC5)c4n3)nc2)CC1 [Compound 265, (E)-7-cyclopentyl-2-((5-(4-(4-(4-fluoro-2-methoxyphenyl)-4-oxobut-2-enoyl)piperazin-1-yl)pyridin-2-yl)amino)-N,N-dimethyl-7H-pyrrolo[2,3-d]pyrimidine-6-carboxamide]"
9,> 10,"COc1ccc(C(=O)/C=C/C(=O)N2CCN(c3ccc(Nc4ncc5cc(C(=O)N(C)C)n(C6CCCC6)c5n4)nc3)CC2)cc1F [Compound 266, (E)-7-cyclopentyl-2-((5-(4-(4-(3-fluoro-4-methoxyphenyl)-4-oxobut-2-enoyl)piperazin-1-yl)pyridin-2-yl)amino)-N,N-dimethyl-7H-pyrrolo[2,3-d]pyrimidine-6-carboxamide]"
10,> 10,"CN(C)C(=O)c1cc2cnc(Nc3ccc(N4CCN(C(=O)/C=C/C(=O)c5ccc(C#N)cc5)CC4)cn3)nc2n1C1CCCC1 [Compound 267, (E)-2-((5-(4-(4-(4-cyanophenyl)-4-oxobut-2-enoyl)piperazin-1-yl)pyridin-2-yl)amino)-7-cyclopentyl-N,N-dimethyl-7H-pyrrolo[2,3-d]pyrimidine-6-carboxamide]"
11,> 10,"COc1ccc(C(=O)/C=C/C(=O)N2CCN(c3ccc(Nc4ncc5cc(C(=O)N(C)C)n(C6CCCC6)c5n4)nc3)CC2)c(Cl)c1 [Compound 268, (E)-2-((5-(4-(4-(2-chloro-4-methoxyphenyl)-4-oxobut-2-enoyl)piperazin-1-yl)pyridin-2-yl)amino)-7-cyclopentyl-N,N-dimethyl-7H-pyrrolo[2,3-d]pyrimidine-6-carboxamide]"
12,> 10,"COc1ccc(C(=O)/C=C/C(=O)N[C@H]2C[C@@H](Nc3ccc(Nc4ncc5cc(C(=O)N(C)C)n(C6CCCC6)c5n4)nc3)C2)cc1 [Compound 269, 7-cyclopentyl-2-((5-(((1s,3s)-3-((E)-4-(4-methoxyphenyl)-4-oxobut-2-enamido)cyclobutyl)amino)pyridin-2-yl)amino)-N,N-dimethyl-7H-pyrrolo[2,3-d]pyrimidine-6-carboxamide]"
13,> 10,"COc1ccc(C(=O)/C=C/C(=O)N[C@H]2C[C@H](Nc3ccc(Nc4ncc5cc(C(=O)N(C)C)n(C6CCCC6)c5n4)nc3)C2)cc1 [Compound 270, 7-cyclopentyl-2-((5-(((1r,3r)-3-((E)-4-(4-methoxyphenyl)-4-oxobut-2-enamido)cyclobutyl)amino)pyridin-2-yl)amino)-N,N-dimethyl-7H-pyrrolo[2,3-d]pyrimidine-6-carboxamide]"
14,1 to 10,"COc1ccc(C(=O)/C=C/C(=O)N2CCN(c3ccc(Nc4ncc5cc(C(=O)N(C)C)n(C6CCCC6)c5n4)nc3)[C@H](C)C2)cc1 [Compound 271, (R,E)-7-cyclopentyl-2-((5-(4-(4-(4-methoxyphenyl)-4-oxobut-2-enoyl)-2-methylpiperazin-1-yl)pyridin-2-yl)amino)-N,N-dimethyl-7H-pyrrolo[2,3-d]pyrimidine-6-carboxamide]"
15,> 10,"COc1ccc(C(=O)/C=C/C(=O)N(C)CCN(C)c2ccc(Nc3ncc4cc(C(=O)N(C)C)n(C5CCCC5)c4n3)nc2)cc1 [Compound 272, (E)-7-cyclopentyl-2-((5-((2-(4-(4-methoxyphenyl)-N-methyl-4-oxobut-2-enamido)ethyl)(methyl)amino)pyridin-2-yl)amino)-N,N-dimethyl-7H-pyrrolo[2,3-d]pyrimidine-6-carboxamide]"
16,1 to 10,"COc1ccc(C(=O)/C=C/C(=O)N2CCN(c3ccc(Nc4ncc5cc(C(=O)N(C)C)n(C6CCCC6)c5n4)nc3)C[C@H]2C)cc1 [Compound 273, (R,E)-7-cyclopentyl-2-((5-(4-(4-(4-methoxyphenyl)-4-oxobut-2-enoyl)-3-methylpiperazin-1-yl)pyridin-2-yl)amino)-N,N-dimethyl-7H-pyrrolo[2,3-d]pyrimidine-6-carboxamide]"
17,1 to 10,"COc1ccc(C(=O)/C=C/C(=O)N2CCN(c3ccc(Nc4ncc5cc(C(=O)N(C)C)n(C6CCCC6)c5n4)nc3)[C@@H](C)C2)cc1 [Compound 274, (S,E)-7-cyclopenty1-2-((5-(4-(4-(4-methoxyphenyl)-4-oxobut-2-enoyl)-2-methylpiperazin-1-yl)pyridin-2-yl)amino)-N,N-dimethyl-7H-pyrrolo[2,3-d]pyrimidine-6-carboxamide]"
18,1 to 10,"COc1ccc(C(=O)/C=C/C(=O)N2CCCN(c3ccc(Nc4ncc5cc(C(=O)N(C)C)n(C6CCCC6)c5n4)nc3)CC2)cc1 [Compound 275, (E)-7-cyclopentyl-2-((5-(4-(4-(4-methoxyphenyl)-4-oxobut-2-enoyl)-1,4-diazepan-1-yl)pyridin-2-yl)amino)-N,N-dimethy1-7H-pyrrolo[2,3-d]pyrimidine-6-carboxamide]"
19,1 to 10,"COc1ccc(C(=O)/C=C/C(=O)N2CCN(c3ccc(Nc4ncc5cc(C(=O)N(C)C)n(C6CCCC6)c5n4)nc3)C[C@@H]2C)cc1 [Compound 276, (S,E)-7-cyclopentyl-2-((5-(4-(4-(4-methoxyphenyl)-4-oxobut-2-enoyl)-3-methylpiperazin-1-yl)pyridin-2-yl)amino)-N,N-dimethyl-7H-pyrrolo[2,3-d]pyrimidine-6-carboxamide]"
